Measurements as given in patent publication US20130289108A1, “Palladium-Copper Catalysts for the Homogeneous Selective Oxidation of Thiol Groups” (priority 2011, published 2013).
Marks after values point to notes of the source that are not given here.

Tested on: male rats with cytopenia
Test: Hemostimulating activity: general analysis of the blood of male rats with cyclophosphan cytopenia
Type: in vivo
[1] = 3 days after cyclophosphan 120 mg/kg
[2] = 7 days after cyclophosphan 120 mg/kg
[3] = 14 days after cyclophosphan 120 mg/kg

Row | SMILES | Erythrocytes [1] | Leucocytes [1] | Lymphocytes [1] [%] | Reticulocytes [1] [%] | Segmented neutrophils [1] [%] | Erythrocytes [2] | Leucocytes [2] | Lymphocytes [2] [%] | Reticulocytes [2] [%] | Segmented neutrophils [2] [%] | Erythrocytes [3] | Leucocytes [3] | Lymphocytes [3] [%] | Reticulocytes [3] [%] | Segmented neutrophils [3] [%]
1 | O=C([O-])[O-].[Li+].[Li+] [preparation 3, lithium carbonate] | 3.4 ± 0.29 10^12/l | 3.22 ± 0.11* 10^9/l | 49.7 ± 1.6 | 1.1 ± 0.1 | 31 ± 1.7 | 3.4 ± 0.29 10^12/l | 3.22 ± 0.11* 10^9/l | 49.7 ± 1.6 | 1.1 ± 0.1 | 31 ± 1.7 | 4.7 ± 0.27 10^12/l | 5.2 ± 0.26** 10^9/l | 70.3 ± 0.9 | 1.3 ± 0.3 | 15.0 ± 2.6
2 | CC(=O)N[C@@H](CSSC[C@H](NC(C)=O)C(=O)O)C(=O)O [preparation 4, N-acetyl-L-cysteine disulfide] | 3.2 ± 0.33 10^12/l | 3.47 ± 0.08* 10^9/l | 52.5 ± 1.3 |  | 31 ± 1.8 | 3.2 ± 0.33 10^12/l | 3.47 ± 0.08* 10^9/l | 52.5 ± 1.3 |  | 31 ± 1.8 | 4.1 ± 0.21 10^12/l | 5.1 ± 0.22** 10^9/l | 71.0 ± 1.6 | 1.2 ± 0.4 | 13.6 ± 1.9
